Data taken from patent US9067926B2, “Fluoromethyl-5,6-dihydro-4H-[1,3]OXAZINES” (F. Hoffmann-La Roche AG, priority 2012, dated 2015).

Experiments:
[1] = target: T1, recombinant human cathepsin E (Homo sapiens, UniProt P14091); assay: Cathepsin E fluorescent substrate kinetic assay; format: biochemical; details: pH 4.5
T1 construct: purchased R&D Systems
T1 sequence (P14091 54-396): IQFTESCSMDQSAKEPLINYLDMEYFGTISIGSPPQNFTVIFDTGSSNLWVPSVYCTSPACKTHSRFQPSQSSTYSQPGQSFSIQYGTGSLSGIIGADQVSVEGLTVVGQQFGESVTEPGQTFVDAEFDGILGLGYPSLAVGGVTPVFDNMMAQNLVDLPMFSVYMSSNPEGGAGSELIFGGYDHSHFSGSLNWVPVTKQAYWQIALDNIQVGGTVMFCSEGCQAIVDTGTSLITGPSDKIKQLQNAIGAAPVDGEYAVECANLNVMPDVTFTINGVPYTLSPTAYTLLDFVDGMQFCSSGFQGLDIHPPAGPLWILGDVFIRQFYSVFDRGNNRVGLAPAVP
From the text: (§1) Cathepsin D and Cathepsin E Fluorescent Substrate Kinetic Assays
(§2) The MR121 fluorescence assays described below are based on the fact that MR121 forms a non-fluorescent ground state complex with tryptophan. In solution this formation occurs at millimolar concentrations of tryptophan. The mechanism can be used to design a generic biochemical assay for proteases. […] In absence of protease activity, the substrates remain intact and the MR121 fluorescence is reduced by the high local Trp-concentration. If the substrates are cleaved by the enzymes the MR121 fluorescence is recovered.
(§3) The fluorescent substrate cathepsin D and cathepsin E kinetic assays were performed at room temperature in 384-well microtiter plates (black with clear flat bottom, non binding surface plates from Corning) in a final volume of 51 μl. The test compounds were serially diluted in DMSO (15 concentrations, 1/3 dilution steps) and 1 μl of diluted compounds were mixed for 10 min with 40 μl of cathepsin D (from human liver, Calbiochem) diluted in assay buffer (100 mM sodium acetate, 0.05% BSA, pH 5.5; final concentration: 200 nM) or with 40 μl of recombinant human cathepsin E (R&D Systems) diluted in assay buffer (100 mM sodium acetate, 0.05% BSA, pH 4.5; final concentration: 0.01 nM). […] The slope in the linear range of the kinetic was calculated and the IC50 of the test compounds were determined using a four parameter equation for curve fitting.

[2] = target: T2, cathepsin D (from human liver) (Homo sapiens, UniProt P07339); assay: Cathepsin D fluorescent substrate kinetic assay; format: biochemical; details: pH 5.5
T2 construct: cathepsin D (from human liver, Calbiochem) diluted in assay buffer; purchased Calbiochem; host or cells: human liver
From the text: as §1, §2, §3

Aβ40 in brain = assay: In vivo inhibition of Aβ40 in brain of wild-type mice; details: Mus musculus, po; 10 mg/kg p.o., brain Aβ40 after 4 h, female C57Bl/6J mice; read-out: in vivo effect, Percentage of control @ 10 mg/kg p.o
Description: In Vivo Experiments. […] The test compound was dissolved in 5% EtOH, 10% Solutol and was applied per os at 10 ml/kg. After 4 h the animals were sacrificed and brain and plasma were collected. The brain was cut into halves and immediately frozen on dry ice. Brain was used for measurement of Aβ40 and plasma was used for determination of compound exposure. […] Brain tissue was homogenized in 2% DEA buffer in a Roche […] (20'', 4000 rpm) and subsequently centrifuged for 1 h at 100'000 g. DEA was reduced to 0.2% in 50 mM NaCl and one half of the DEA lysate was passed over an Oasis Solid Phase extraction plate (Waters; Cat.Nr. 186000679) which had been activated with MeOH and equilibrated in dH2O (1 ml each). After washes in 10% and 30% MeOH (1 ml each) the AP-peptides were eluted in 0.8 ml 2% NH4OH in 90% MeOH. […] Aβ40 was determined by an AlphaLISA assay (Perkin Elmer). In a white 96well half-area microplate (Perkin Elmer Cat.Nr. 6005561), 20 μl of the reconstituted sample were mixed with 5 μl biotinylated BAP-24 (specific for C-terminus of Aβ40 (Brockhaus, M.; Grunberg, J.; Rohrig, S.; Loetscher, H.; Wittenburg, N.; Baumeister, R.; Jacobsen, […]. Caspase-mediated cleavage is not required for the activity of presenilins in amyloidogenesis and NOTCH signaling. […] The mix was incubated for 1 h at RT in the dark. Then 20 μl Streptavin-coated Donor Beads (Perkin Elmer Cat. Nr. 6760002, final dilution 1:125) were added and this final mix was incubated in the dark for another 30 min at r.t. before RFU was measured in an AlphaScreen Reader(Perkin Elmer Envision 2104).

hERG = hERG (Homo sapiens, UniProt Q12809); assay: hERG current measurement (automated patch clamp); format: cell-based
Description: The hERG current measurement was performed at an automated patch clamp system following the procedure described in R. E. Martin et al. in Bio org.

CYP2C9 = target: T3, CYP2C9 (Homo sapiens, UniProt P11712); assay: CYP inhibition assay, CYP2C9; format: in vitro ADME; details: pooled human liver microsomes, diclofenac substrate; read-out: CYP IC50 2C9
T3 construct: 0.2 mg/ml pooled human liver microsomes; from tissue; host or cells: pooled human liver microsomes
Description: (§4) Inhibition of cytochromes P450 (CYPs) 2C9, 2D6 and 3A4 was assessed using human liver microsomes and CYP-selective substrate metabolism reactions. […] Quenched incubates were stored at −20° C. for at least 1 hour before centrifugation (20,000×g, 20 minutes). Supernatants were removed and diluted 1:1 with water prior to analysis using a RapidFire sample injector system and API4000 mass spectrometer. Peak areas for substrate, metabolite and stable-labelled metabolite standard were determined using MS/MS. The peak area ratios between the metabolite generated by the enzymatic reaction and the internal standard were used in subsequent calculations. The percentage of (DMSO) control activity was calculated for each incubate and IC50 values estimated by non-linear regression. Sulfaphenazole, quinidine or ketoconazole were tested in each CYP2C9, CYP2D6 or CYP3A4 inhibition experiment, respectively, to ensure assay sensitivity and reproducibility.

CYP3A4 = target: T4, CYP3A4 (Homo sapiens, UniProt P08684); assay: CYP inhibition assay, CYP3A4; format: in vitro ADME; details: pooled human liver microsomes, midazolam substrate; read-out: CYP IC50 3A4
T4 construct: 0.2 mg/ml pooled human liver microsomes; from tissue; host or cells: pooled human liver microsomes
Description: as §4

[3] = Detection of glutathione conjugates (GSH); format: in vitro ADME, human; set-up: key: NF = in vitro no adduct formation relative to control; details: in vitro, relative to control
From the text: Detection of Glutathione Conjugates (GSH) The assay conditions for the detection of glutathione conjugates follow the procedure described by C. M. Dieckhaus et al. in Chem. Res. Toxicol. 2005, 18, 630-63.

CYP2D6 = target: T5, CYP2D6 (Homo sapiens, UniProt P10635); assay: CYP inhibition assay, CYP2D6; format: in vitro ADME; details: pooled human liver microsomes, dextromethorphan substrate; read-out: CYP IC50 2D6
T5 construct: 0.2 mg/ml pooled human liver microsomes; from tissue; host or cells: pooled human liver microsomes
Description: as §4

BACE1 = target: T6, BACE1 (Homo sapiens, UniProt P56817); assay: Cellular Aβ-lowering assay (Abeta 40 AlphaLISA); format: cell-based; details: HEK293 APP cells, 18-20 hrs incubation, Aβ 40 in culture supernatant; read-out: BACE1 cell act. Aβ40 IC50
T6 construct: endogenous in cells; host or cells: HEK293 APP cells
Description: Cellular Aβ-Lowering Assay:
The Abeta 40 AlphaLISA Assay can be used. The HEK293 APP cells were seeded in 96 well Microtiter plates in cell culture medium (Iscove's, plus 10% (vv) fetal bovine serum, penicillinstreptomycin) to about 80% confluency and the compounds were added at a 3× concentration in 13 volume of culture medium (final DMSO concentration was kept at 1% vv). After 18-20 hrs incubation at 37° C. and 5% CO2 in a humidified incubator, the culture supernatants were harvested for the determination of Aβ 40 concentrations using Perkin-Elmer Human Amyloid beta 1-40 (high specificity) Kit (Cat# AL275C).
Levels of Aβ 40 in the culture supernatants were calculated as percentage of maximum signal (cells treated with 1% DMSO without inhibitor). The IC50 values were calculated using the Excel XLfit software.

T6 sequence (P56817 46-501): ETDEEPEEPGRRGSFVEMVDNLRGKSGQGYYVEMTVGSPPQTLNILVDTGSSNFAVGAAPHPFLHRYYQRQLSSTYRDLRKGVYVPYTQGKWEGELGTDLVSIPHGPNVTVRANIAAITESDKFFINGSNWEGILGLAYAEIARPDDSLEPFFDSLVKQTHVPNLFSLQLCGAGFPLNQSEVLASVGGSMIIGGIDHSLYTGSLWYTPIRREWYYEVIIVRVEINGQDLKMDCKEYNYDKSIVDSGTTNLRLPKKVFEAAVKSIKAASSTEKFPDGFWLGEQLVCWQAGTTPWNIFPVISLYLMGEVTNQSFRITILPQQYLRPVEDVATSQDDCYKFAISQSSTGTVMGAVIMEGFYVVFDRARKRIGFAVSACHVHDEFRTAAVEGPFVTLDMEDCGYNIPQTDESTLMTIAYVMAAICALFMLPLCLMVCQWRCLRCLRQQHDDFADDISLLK
T2 sequence (P07339 65-412): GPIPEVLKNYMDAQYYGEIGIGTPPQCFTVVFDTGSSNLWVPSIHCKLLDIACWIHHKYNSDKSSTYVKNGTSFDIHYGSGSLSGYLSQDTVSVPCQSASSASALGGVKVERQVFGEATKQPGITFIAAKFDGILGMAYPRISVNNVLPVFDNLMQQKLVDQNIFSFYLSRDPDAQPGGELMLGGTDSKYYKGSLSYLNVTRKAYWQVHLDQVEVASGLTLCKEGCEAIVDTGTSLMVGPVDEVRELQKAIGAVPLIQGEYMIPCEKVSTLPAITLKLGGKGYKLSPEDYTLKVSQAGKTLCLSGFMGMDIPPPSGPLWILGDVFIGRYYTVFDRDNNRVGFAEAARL
Chain of hERG (Q12809 whole entry): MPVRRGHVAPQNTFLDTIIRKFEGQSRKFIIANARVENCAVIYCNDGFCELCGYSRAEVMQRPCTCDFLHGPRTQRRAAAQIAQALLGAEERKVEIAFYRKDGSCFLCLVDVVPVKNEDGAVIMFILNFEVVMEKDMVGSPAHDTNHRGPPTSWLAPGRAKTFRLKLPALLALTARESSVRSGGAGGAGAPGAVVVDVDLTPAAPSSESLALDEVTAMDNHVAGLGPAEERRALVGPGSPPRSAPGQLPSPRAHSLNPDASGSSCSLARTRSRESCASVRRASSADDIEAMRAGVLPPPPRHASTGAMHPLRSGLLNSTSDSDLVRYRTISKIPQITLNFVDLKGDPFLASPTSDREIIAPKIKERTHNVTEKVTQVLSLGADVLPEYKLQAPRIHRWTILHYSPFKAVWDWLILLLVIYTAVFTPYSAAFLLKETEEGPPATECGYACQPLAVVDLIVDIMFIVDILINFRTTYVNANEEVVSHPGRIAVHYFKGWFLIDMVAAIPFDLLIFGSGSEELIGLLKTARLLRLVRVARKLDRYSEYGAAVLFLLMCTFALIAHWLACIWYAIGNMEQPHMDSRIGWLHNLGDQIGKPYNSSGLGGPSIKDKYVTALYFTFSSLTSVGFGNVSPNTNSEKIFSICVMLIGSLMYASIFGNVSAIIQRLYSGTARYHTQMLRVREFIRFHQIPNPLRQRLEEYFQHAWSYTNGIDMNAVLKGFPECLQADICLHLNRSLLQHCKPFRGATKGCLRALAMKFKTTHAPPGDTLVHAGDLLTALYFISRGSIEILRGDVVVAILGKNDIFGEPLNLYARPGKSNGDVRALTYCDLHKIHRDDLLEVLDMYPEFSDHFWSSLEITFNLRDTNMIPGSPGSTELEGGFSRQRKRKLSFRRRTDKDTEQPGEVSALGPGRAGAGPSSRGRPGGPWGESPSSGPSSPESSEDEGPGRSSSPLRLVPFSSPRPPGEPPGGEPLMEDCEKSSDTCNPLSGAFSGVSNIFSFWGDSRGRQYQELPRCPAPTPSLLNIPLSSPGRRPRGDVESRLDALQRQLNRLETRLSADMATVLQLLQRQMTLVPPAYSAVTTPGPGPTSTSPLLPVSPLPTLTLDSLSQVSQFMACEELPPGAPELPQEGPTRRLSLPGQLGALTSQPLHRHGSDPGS
T3 sequence (P11712 whole entry): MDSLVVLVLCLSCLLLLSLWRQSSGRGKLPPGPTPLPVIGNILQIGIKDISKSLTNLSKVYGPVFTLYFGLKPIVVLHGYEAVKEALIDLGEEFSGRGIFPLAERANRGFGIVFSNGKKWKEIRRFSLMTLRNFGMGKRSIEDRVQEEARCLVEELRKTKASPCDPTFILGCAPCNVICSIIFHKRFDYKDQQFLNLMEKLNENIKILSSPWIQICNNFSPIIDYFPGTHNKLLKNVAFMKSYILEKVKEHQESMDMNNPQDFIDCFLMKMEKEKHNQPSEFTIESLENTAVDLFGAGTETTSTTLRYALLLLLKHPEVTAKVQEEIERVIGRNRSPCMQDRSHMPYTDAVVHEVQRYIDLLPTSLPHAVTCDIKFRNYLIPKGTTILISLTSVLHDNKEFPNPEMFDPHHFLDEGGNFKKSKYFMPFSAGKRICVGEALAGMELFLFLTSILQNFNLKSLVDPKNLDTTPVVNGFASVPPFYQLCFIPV
T4 sequence (P08684 whole entry): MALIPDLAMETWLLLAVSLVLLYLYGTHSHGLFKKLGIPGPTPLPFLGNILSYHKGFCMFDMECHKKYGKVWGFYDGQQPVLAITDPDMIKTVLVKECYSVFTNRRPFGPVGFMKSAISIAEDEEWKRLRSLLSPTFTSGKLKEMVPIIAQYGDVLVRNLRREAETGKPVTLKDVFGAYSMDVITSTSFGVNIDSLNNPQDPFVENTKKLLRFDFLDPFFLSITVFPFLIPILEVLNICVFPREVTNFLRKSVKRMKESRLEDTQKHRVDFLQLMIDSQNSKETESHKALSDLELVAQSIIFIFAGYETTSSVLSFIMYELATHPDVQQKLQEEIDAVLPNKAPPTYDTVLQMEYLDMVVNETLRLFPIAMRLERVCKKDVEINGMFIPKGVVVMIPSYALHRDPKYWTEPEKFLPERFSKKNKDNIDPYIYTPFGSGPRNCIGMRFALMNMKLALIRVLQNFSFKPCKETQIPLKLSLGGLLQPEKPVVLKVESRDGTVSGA
T5 sequence (P10635 whole entry): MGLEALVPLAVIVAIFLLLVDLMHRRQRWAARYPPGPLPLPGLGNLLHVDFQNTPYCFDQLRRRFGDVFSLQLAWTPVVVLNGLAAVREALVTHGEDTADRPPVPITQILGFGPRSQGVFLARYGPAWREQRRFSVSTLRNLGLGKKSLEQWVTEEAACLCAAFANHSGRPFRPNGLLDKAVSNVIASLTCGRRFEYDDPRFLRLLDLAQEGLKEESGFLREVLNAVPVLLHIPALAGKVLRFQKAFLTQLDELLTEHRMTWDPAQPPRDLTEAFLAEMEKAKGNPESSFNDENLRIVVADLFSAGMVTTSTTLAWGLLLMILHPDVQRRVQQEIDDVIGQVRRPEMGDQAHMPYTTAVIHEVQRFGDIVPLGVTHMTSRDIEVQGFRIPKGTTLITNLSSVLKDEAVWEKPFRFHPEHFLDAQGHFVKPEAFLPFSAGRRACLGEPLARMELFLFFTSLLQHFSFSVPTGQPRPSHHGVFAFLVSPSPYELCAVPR

IC50 (BACE1)	Compound	further results
64 nM	Cc1cnc(C(=O)Nc2ccc(F)c([C@]3(CF)C[C@@H](C(F)(F)F)OC(N)=N3)c2)cn1 [Example 42, N-(3-((4S,6S)-2-Amino-4-(fluoromethyl)-6-(trifluoromethyl)-5,6-dihydro-4H-1,3-oxazin-4-yl)-4-fluorophenyl)-5-methylpyrazine-2-carboxamide]	
3 nM	NC1=N[C@](CF)(c2cc(NC(=O)c3cnc(OCF)cn3)ccc2F)C[C@@H](C(F)(F)F)O1 [Example 43, N-(3-((4S,6S)-2-Amino-4-(fluoromethyl)-6-(trifluoromethyl)-5,6-dihydro-4H-1,3-oxazin-4-yl)-4-fluorophenyl)-5-(fluoromethoxy)pyrazine-2-carboxamide]	
39 nM	NC1=N[C@](CF)(c2cc(NC(=O)c3cnc(C(F)F)cn3)ccc2F)C[C@@H](C(F)(F)F)O1 [Example 45, N-(3-((4S,6S)-2-Amino-4-(fluoromethyl)-6-(trifluoromethyl)-5,6-dihydro-4H-1,3-oxazin-4-yl)-4-fluorophenyl)-5-(difluoromethyl)pyrazine-2-carboxamide]	
1 nM	NC1=N[C@](CF)(c2cc(NC(=O)c3coc(CF)n3)ccc2F)C[C@@H](C(F)(F)F)O1 [Example 47, N-(3-((4S,6S)-2-Amino-4-(fluoromethyl)-6-(trifluoromethyl)-5,6-dihydro-4H-1,3-oxazin-4-yl)-4-fluorophenyl)-2-(fluoromethyl)oxazole-4-carboxamide]	
520 nM	N#Cc1ccc(C(=O)Nc2ccc(F)c([C@]3(C(F)F)C[C@H](C(F)(F)F)OC(N)=N3)c2)nc1 [Example 48, N-(3-((4S,6R)-2-Amino-4-(difluoromethyl)-6-(trifluoromethyl)-5,6-dihydro-4H-1,3-oxazin-4-yl)-4-fluorophenyl)-5-cyanopicolinamide]	
82 nM	N#Cc1ccc(C(=O)Nc2ccc(F)c([C@]3(C(F)F)C[C@@H](C(F)(F)F)OC(N)=N3)c2)nc1 [Example 49, N-(3-((4S,6S)-2-Amino-4-(difluoromethyl)-6-(trifluoromethyl)-5,6-dihydro-4H-1,3-oxazin-4-yl)-4-fluorophenyl)-5-cyanopicolinamide]	

Continued, molecule first:

Compound	IC50 (BACE1)	further results
N#Cc1ccc(C(=O)Nc2ccc(F)c([C@]3(CF)C[C@@H](C(F)(F)F)OC(N)=N3)c2)nc1 [Example 3, N-(3-((4S,6S)-2-amino-4-(fluoromethyl)-6-(trifluoromethyl)-5,6-dihydro-4H-1,3-oxazin-4-yl)-4-fluorophenyl)-5-cyanopicolinamide]		IC50 [1]: > 200000 nM; IC50 [2]: > 200000 nM
COc1cnc(C(=O)Nc2ccc(F)c([C@]3(CF)C[C@@H](C(F)(F)F)OC(N)=N3)c2)cn1 [Example 36, N-(3-((4S,6S)-2-Amino-4-(fluoromethyl)-6-(trifluoromethyl)-5,6-dihydro-4H-1,3-oxazin-4-yl)-4-fluorophenyl)-5-methoxypyrazine-2-carboxamide]		IC50 [1]: > 200000 nM; response vs control in vivo at 10 mg/kg (Aβ40 in brain): 88%; hERG Inhibition @ 10 μM (hERG): 7; IC50 (CYP2C9): > 50000 nM; IC50 (CYP3A4): > 50000 nM; GSH human (glutathione adduct formation) [3]: NF; IC50 [2]: > 200000 nM; IC50 (CYP2D6): 16000 nM
CC#CCOc1cnc(C(=O)Nc2ccc(F)c([C@]3(CF)C[C@@H](C(F)(F)F)OC(N)=N3)c2)cn1 [Example 38, N-(3-((4S,6S)-2-Amino-4-(fluoromethyl)-6-(trifluoromethyl)-5,6-dihydro-4H-1,3-oxazin-4-yl)-4-fluorophenyl)-5-(but-2-ynyloxy)pyrazine-2-carboxamide]	0.6 nM	
NC1=N[C@](CF)(c2cc(NC(=O)c3cnc(OC(F)F)cn3)ccc2F)C[C@@H](C(F)(F)F)O1 [Example 39, N-(3-((4S,6S)-2-Amino-4-(fluoromethyl)-6-(trifluoromethyl)-5,6-dihydro-4H-1,3-oxazin-4-yl)-4-fluorophenyl)-5-(difluoromethoxy)pyrazine-2-carboxamide]	0.4 nM	
NC1=N[C@](CF)(c2cc(NC(=O)c3cnc(OCC(F)F)cn3)ccc2F)C[C@@H](C(F)(F)F)O1 [Example 40, N-(3-((4S,6S)-2-Amino-4-(fluoromethyl)-6-(trifluoromethyl)-5,6-dihydro-4H-1,3-oxazin-4-yl)-4-fluorophenyl)-5-(2,2-difluoroethoxyl)pyrazine-2-carboxamide]	29 nM	
NC1=N[C@](CF)(c2cc(NC(=O)c3cnc(OCC(F)(F)F)cn3)ccc2F)C[C@@H](C(F)(F)F)O1 [Example 41, N-(3-((4S,6S)-2-Amino-4-(fluoromethyl)-6-(trifluoromethyl)-5,6-dihydro-4H-1,3-oxazin-4-yl)-4-fluorophenyl)-5-(2,2,2-trifluoroethoxyl)pyrazine-2-carboxamide]	17 nM	
